Among the data in PubChem BioAssay AID330 (DTP/NCI, 2004) are T/C values, retold here.

Several values for one entry are separate records, joined by “and”; a condition that tells them apart may be missing. Equal entries are not always repeated. Toxic doses and inconclusive results are not listed.

The test deals with P388 leukemia ip, CD2F1 mice, survival T/C. Kind of test: NCI In Vivo Anticancer Drug Screen. Data for tumor model P388 Leukemia (intraperitoneal) in CD2F1 (CDF1) mice. As to conditions: endpoint: median survival time, higher = longer survival. In a few lines: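 Mice carrying the transplanted tumor received test compound or vehicle. Survival was recorded in each group, and the value is the treated-group measurement divided by that of the vehicle-treated control group.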

The mark [1] stands for this setting: dose: 12.5 mg/kg/injection, schedule: Q01DX009 (ip), vehicle: saline with Tween-80.
[2] abbreviates: dose: 100.0 mg/kg/injection, schedule: Q01DX009 (ip), vehicle: saline with Tween-80.
Setting [3] is: dose: 200.0 mg/kg/injection, schedule: Q01DX009 (ip), vehicle: saline with Tween-80.
[4] abbreviates: dose: 25.0 mg/kg/injection, schedule: Q01DX009 (ip), vehicle: saline with Tween-80.
Setting [5] is: dose: 50.0 mg/kg/injection, schedule: Q01DX009 (ip), vehicle: saline with Tween-80.
Where [6] appears, read: dose: 100.0 mg/kg/injection, schedule: Q04DX003 (ip), vehicle: saline with Tween-80.
Setting [7] is: dose: 200.0 mg/kg/injection, schedule: Q04DX003 (ip), vehicle: saline with Tween-80.
The mark [8] stands for this setting: dose: 50.0 mg/kg/injection, schedule: Q01DX005 (ip), vehicle: Klucel (hydroxypropylcellulose) (HPC).
Where [9] appears, read: dose: 100.0 mg/kg/injection, schedule: Q01DX005 (ip), vehicle: Klucel (hydroxypropylcellulose) (HPC).
Where [10] appears, read: dose: 50.0 mg/kg/injection, schedule: Q01DX005 (ip), vehicle: saline with Tween-80.
Setting [11] is: dose: 100.0 mg/kg/injection, schedule: Q01DX005 (ip), vehicle: saline with Tween-80.
[12] abbreviates: dose: 200.0 mg/kg/injection, schedule: Q01DX005 (ip), vehicle: saline with Tween-80.
[13] abbreviates: dose: 50.0 mg/kg/injection, schedule: Q04DX003 (ip), vehicle: saline with Tween-80.
[14] abbreviates: dose: 60.0 mg/kg/injection, schedule: Q01DX005 (ip), vehicle: saline with Tween-80.
Where [15] appears, read: dose: 120.0 mg/kg/injection, schedule: Q01DX005 (ip), vehicle: saline with Tween-80.

For `O=S(=O)(OCCCl)c1c(F)c(F)c(F)c(F)c1F`, the T/C was 103 % of control (dose: 3.12 mg/kg/injection, schedule: Q01DX009 (ip), vehicle: saline with Tween-80); 109 % of control (dose: 6.25 mg/kg/injection, schedule: Q01DX009 (ip), vehicle: saline with Tween-80); 110 % of control under setting [1].
For `COP(=O)(CC(=O)CCCCCO)OC`, the T/C is, setting by setting: (dose: 60.0 mg/kg/injection, schedule: Q01DX005 (ip), vehicle: saline) 114 % of control; (dose: 120.0 mg/kg/injection, schedule: Q01DX005 (ip), vehicle: saline) 107 % of control; (dose: 240.0 mg/kg/injection, schedule: Q01DX005 (ip), vehicle: saline) 107 % of control.
Regarding `CCOC(=O)C(=CNc1ccccn1)C(=O)OCC`, the T/C is, setting by setting: under setting [2], 95 % of control; under setting [3], 100 % of control; (dose: 400.0 mg/kg/injection, schedule: Q01DX009 (ip), vehicle: saline with Tween-80) 113 % of control.
For the molecule `CCOC(=O)C/C(C)=N\N(C)C(N)=O`, the T/C is 91 % of control (dose: 50.0 mg/kg/injection, schedule: Q01DX009 (ip), vehicle: saline) and 94 % of control (dose: 100.0 mg/kg/injection, schedule: Q01DX009 (ip), vehicle: saline).
Consider `O=Cc1cc2c(Cl)nccc2o1`, for which the T/C by setting is: (dose: 60.0 mg/kg/injection, schedule: Q01DX005 (ip), vehicle: Klucel (hydroxypropylcellulose) (HPC)) 105 % of control; (dose: 120.0 mg/kg/injection, schedule: Q01DX005 (ip), vehicle: Klucel (hydroxypropylcellulose) (HPC)) 102 % of control; (dose: 240.0 mg/kg/injection, schedule: Q01DX005 (ip), vehicle: Klucel (hydroxypropylcellulose) (HPC)) 104 % of control.
Regarding `CCC/C=C1\OC(=O)c2ccccc21`, the T/C was 104 % of control under setting [1]; 100 % of control under setting [4]; 104 % of control under setting [5]; 100 % of control under setting [2]; 114 % of control under setting [3].
Turning to `O=C(CCCCl)CC(O)(C(F)(F)F)C(F)(F)F`, the T/C under setting [6] is 110 % of control and the T/C under setting [7] is 90 % of control.
As to `[CH3][Sn]([CH3])([n]1cc(CC(=O)O)c2ccccc21)[n]1cc(CC(=O)O)c2ccccc21`, the T/C is 116 % of control under setting [8] and 108 % of control under setting [9].
As to `C[n+]1c(/C=C/c2ccc([N+](=O)[O-])cc2)ccc2ccccc21`, the T/C by setting is: (dose: 3.3 mg/kg/injection, schedule: Q01DX009 (ip), vehicle: saline sonified) 100 % of control; (dose: 6.5 mg/kg/injection, schedule: Q01DX009 (ip), vehicle: saline sonified) 111 % of control; (dose: 12.5 mg/kg/injection, schedule: Q01DX009 (ip), vehicle: saline sonified) 111 % of control.
In the case of `CC(C)CC1NC(=O)N(CCN(C)C)C1=O` (centres undefined), the T/C was 100 % of control under setting [10], 106 % of control under setting [11] and 100 % of control under setting [12].
Regarding `CCCCCCCCCCCC(=O)Nc1ncc([N+](=O)[O-])s1`, the T/C was 101 % of control (dose: 50.0 mg/kg/injection, schedule: Q01DX009 (ip), vehicle: Klucel (hydroxypropylcellulose) (HPC)); 102 % of control (dose: 100.0 mg/kg/injection, schedule: Q01DX009 (ip), vehicle: Klucel (hydroxypropylcellulose) (HPC)); 106 % of control (dose: 200.0 mg/kg/injection, schedule: Q01DX009 (ip), vehicle: Klucel (hydroxypropylcellulose) (HPC)).
With `CC1(C)OC(c2ccccc2)=Nc2ccccc21`, the T/C by setting is: (dose: 100.0 mg/kg/injection, schedule: Q04DX002 (ip), vehicle: saline) 104 % of control; (dose: 200.0 mg/kg/injection, schedule: Q04DX002 (ip), vehicle: saline) 103 % of control; (dose: 400.0 mg/kg/injection, schedule: Q04DX002 (ip), vehicle: saline) 99 % of control.
Consider `C=CCCn1nnc(-c2ccccc2)n1`, for which the T/C was 102 % of control (dose: 25.0 mg/kg/injection, schedule: Q04DX003 (ip), vehicle: saline with Tween-80); 96 % of control under setting [13]; 100 % of control under setting [6]; 104 % of control and 105 % of control under setting [7]; 94 % of control (dose: 400.0 mg/kg/injection, schedule: Q04DX003 (ip), vehicle: saline with Tween-80).
For the molecule `COc1cc(Cl)nc(OC)n1`, the T/C is, setting by setting: under setting [4], 108 % of control; under setting [5], 89 % of control; under setting [2], 103 % of control; under setting [3], 103 % of control.
As for `CC12CCC3C(CCC4CC(OC(=O)Cc5ccc(N(CCCl)CCCl)cc5)CCC43C)C1CCC(=O)N2` (centres undefined), the T/C reads like this: (dose: 0.75 mg/kg/injection, schedule: Q01DX009 (ip), vehicle: saline with Tween-80) 112 % of control and 117 % of control; (dose: 1.5 mg/kg/injection, schedule: Q01DX009 (ip), vehicle: saline with Tween-80) 111 % of control and 124 % of control; (dose: 6.0 mg/kg/injection, schedule: Q01DX009 (ip), vehicle: saline with Tween-80) 169 % of control and 184 % of control; (dose: 12.0 mg/kg/injection, schedule: Q01DX009 (ip), vehicle: saline with Tween-80) 220 % of control and 237 % of control; (dose: 24.0 mg/kg/injection, schedule: Q01DX009 (ip), vehicle: saline with Tween-80) 104 % of control and 121 % of control.
`C=C(C)C12OC1[C@@]1(C)C(=CC2=O)CCC(O)[C@@H]1C` (some centres undefined): the T/C was 101 % of control (dose: 20.0 mg/kg/injection, schedule: Q01DX005 (ip), vehicle: saline); 104 % of control (dose: 40.0 mg/kg/injection, schedule: Q01DX005 (ip), vehicle: saline); 100 % of control (dose: 80.0 mg/kg/injection, schedule: Q01DX005 (ip), vehicle: saline).
For the molecule `Cc1c(N=Nc2ccc(Br)cc2)c(-c2ccccc2)nn1C(=S)S`, the T/C reads like this: under setting [8], 105 % of control; under setting [9], 105 % of control; (dose: 200.0 mg/kg/injection, schedule: Q01DX005 (ip), vehicle: Klucel (hydroxypropylcellulose) (HPC)) 90 % of control.
With `COc1cc(C2c3cc4c(cc3OC(O)C2C)OCO4)cc(OC)c1OC` (centres undefined), the T/C is, setting by setting: (dose: 15.0 mg/kg/injection, schedule: Q01DX005 (ip), vehicle: saline with Tween-80) 99 % of control; (dose: 30.0 mg/kg/injection, schedule: Q01DX005 (ip), vehicle: saline with Tween-80) 101 % of control; under setting [14], 99 % of control and 112 % of control; under setting [15], 117 % of control.
For the molecule `COC(=O)C1(CC(=O)c2cc(Cl)ccc2Cl)NC(=S)NC(=O)C1C#N` (centres undefined), the T/C runs as follows: under setting [14], 94 % of control; under setting [15], 92 % of control; (dose: 240.0 mg/kg/injection, schedule: Q01DX005 (ip), vehicle: saline with Tween-80) 95 % of control.
Turning to `N#Cc1nnn(-c2ccc(Cl)cc2)c1N`, the T/C under setting [8] is 99 % of control and the T/C under setting [9] was 97 % of control.
On to `COc1cc(/C=C/c2ccc3ccccc3n2)cc(OC)c1OC`, for which the T/C runs as follows: under setting [13], 100 % of control; under setting [2], 86 % of control; under setting [6], 100 % of control; under setting [3], 90 % of control; under setting [7], 100 % of control.
For the molecule `CCOC1N(c2ccc(Cl)cc2)CN(C)CC1(C)C` (centres undefined), the T/C reads like this: under setting [5], 117 % of control; under setting [2], 120 % of control.
As to `CCC(C)NC(=O)C(C)O` (centres undefined), the T/C is, setting by setting: (dose: 50.0 mg/kg/injection, schedule: Q01DX005 (ip), vehicle: saline) 95 % of control; (dose: 100.0 mg/kg/injection, schedule: Q01DX005 (ip), vehicle: saline) 99 % of control; (dose: 200.0 mg/kg/injection, schedule: Q01DX005 (ip), vehicle: saline) 97 % of control.
In the case of `COC(=O)C(CSC1CCCCC1=O)NC(C)=O` (centres undefined), the T/C reads like this: (dose: 25.0 mg/kg/injection, schedule: Q01DX005 (ip), vehicle: Klucel (hydroxypropylcellulose) (HPC)) 93 % of control; under setting [8], 95 % of control; under setting [9], 101 % of control.
Consider `CC1=NN(c2ccc(Cl)cc2)C(=O)/C1=C\c1c(C)[nH]n(-c2ccc(Cl)cc2)c1=O`, for which the T/C is 110 % of control under setting [10], 101 % of control under setting [11] and 96 % of control under setting [12].
Turning to `CC(=O)OCC1OC(CC(=O)c2ccccc2)C=CC1OC(C)=O` (centres undefined), the T/C was 99 % of control (dose: 25.0 mg/kg/injection, schedule: Q01DX005 (ip), vehicle: saline with Tween-80); 102 % of control and 101 % of control under setting [10]; 100 % of control and 106 % of control under setting [11]; 97 % of control and 106 % of control under setting [12].
